Laboratory results from PubChem BioAssay AID1033 (Sanford-Burnham Center for Chemical Genomics, 2008).
Calls of active or inactive are those of the source. No rule for the calls is given here.

Biological target: Chaperone protein DnaK (Escherichia coli (strain K12)) (UniProt P0A6Y8)
Experiment: E. coli DnaK SBD ligand binding – biophysical, NMR, chaperone (AID 1033)
Conditions: Purified DnaK SBD

Chain of Chaperone protein DnaK (Escherichia coli (strain K12)) (P0A6Y8 whole entry, looked up): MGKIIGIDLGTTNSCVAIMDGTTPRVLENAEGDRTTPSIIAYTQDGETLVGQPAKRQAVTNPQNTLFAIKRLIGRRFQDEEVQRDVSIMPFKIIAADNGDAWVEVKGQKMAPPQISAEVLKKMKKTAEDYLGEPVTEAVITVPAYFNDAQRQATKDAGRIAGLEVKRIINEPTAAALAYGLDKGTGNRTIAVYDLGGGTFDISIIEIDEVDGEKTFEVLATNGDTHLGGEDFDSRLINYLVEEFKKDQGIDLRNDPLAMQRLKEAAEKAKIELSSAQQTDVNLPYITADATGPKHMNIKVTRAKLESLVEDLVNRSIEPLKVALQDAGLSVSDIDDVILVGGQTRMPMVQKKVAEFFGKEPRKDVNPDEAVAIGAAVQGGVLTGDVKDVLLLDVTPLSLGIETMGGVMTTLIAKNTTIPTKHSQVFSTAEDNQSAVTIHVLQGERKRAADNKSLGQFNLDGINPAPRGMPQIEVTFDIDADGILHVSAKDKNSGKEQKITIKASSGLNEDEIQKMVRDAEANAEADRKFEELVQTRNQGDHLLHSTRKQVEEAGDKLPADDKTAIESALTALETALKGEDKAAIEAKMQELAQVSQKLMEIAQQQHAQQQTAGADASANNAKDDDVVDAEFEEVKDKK

| SMILES | Kd |
| --- | --- |
| CN(C)C(=O)N1CCN(C(=O)c2ccco2)CC1 | > 4 mM (inactive) |
| Cc1cc(C(=O)Nc2cccnc2)no1 | > 4 mM (inactive) |
| CN(C)Cc1nc2c([nH]1)c(=O)[nH]c(=O)n2C | > 4 mM (inactive) |
| COc1cc2c(cc1OC)-c1cc3ccc(OC)c(OC)c3c[n+]1CC2 | > 4 mM (inactive) |
| OCc1ncoc1-c1ccccc1 | > 4 mM (inactive) |
| C=C1CCC(C2CC(=O)OC2=O)C(=O)CCC2C1CC2(C)C (stereo not drawn) | > 4 mM (inactive) |
| COc1ccc2c(c1O)-c1c(OC)c(OC)cc3c1[C@H](C2)N(C)CC3 | > 4 mM (inactive) |
| O=C(NCO)c1ccccc1Cl | > 4 mM (inactive) |
| NCCc1c[nH]c2ccccc12 | > 4 mM (inactive) |
| COc1ccc2[nH]c(O)c(NC(C)=O)c2c1 | > 4 mM (inactive) |
| COC(=O)/C(=C1\OC(=O)C(c2ccccc2)C1=O)c1ccccc1 (stereo not drawn) | > 4 mM (inactive) |
| Nn1cnn2c(SCc3ccccc3)nnc12 | > 4 mM (inactive) |
| O=C1NNC(=O)C2C3c4ccccc4C(c4ccccc43)C12 (stereo not drawn) | > 4 mM (inactive) |
| CC(=O)C1CCC2C3CCC4C[C@H](O)CCC4(C)C3C[C@H](O)C12C (stereo partly drawn) | > 4 mM (inactive) |
| O=C1C=CC2=C3c4cc(O)c(O)cc4CC3(O)COC2=C1O (stereo not drawn) | > 4 mM (inactive) |
| CC(=O)N1CC2(C)CN(C(C)=O)CC(C)(C1)C2O (stereo not drawn) | > 4 mM (inactive) |
| OCC(O)Cc1ccc2c(c1)OCO2 (stereo not drawn) | > 4 mM (inactive) |
| Cc1ccnc(NS(=O)(=O)c2cccs2)c1 | > 4 mM (inactive) |
| Cn1c(=O)c2c(n(C)c1=O)=NC1(CCCCC1)N=2 | > 4 mM (inactive) |
| CN1CCN(C(=S)NC(=O)c2ccn(C)n2)CC1 | > 4 mM (inactive) |
| C=C(C)[C@H]1Cc2c(ccc3c2O[C@@H]2COc4cc(OC)c(OC)cc4[C@@H]2C3=O)O1 | > 4 mM (inactive) |
| CC(=O)c1ccc(NC(=S)N2CCC(O)CC2)cc1 | > 4 mM (inactive) |
| O=C(Cc1ccccc1)Nc1c[nH]c(=O)[nH]c1=O | > 4 mM (inactive) |
| O=c1[nH]cc(COCc2ccccc2)c(=O)[nH]1 | > 4 mM (inactive) |

| SMILES | Kd |
| --- | --- |
| OCc1ccc2c(c1)OCCO2 | > 4 mM (inactive) |
| Cn1c(CSc2nc3ccccc3s2)n[nH]c1=S | > 4 mM (inactive) |
| CCC(=O)NC(=S)Nc1ccc(N2CCOCC2)cc1 | > 4 mM (inactive) |
| O=C(COc1ccccc1O)NCCO | > 4 mM (inactive) |
| C=CCNC(=O)c1ccc(Cl)cc1Cl | > 4 mM (inactive) |
| O=C1NC2NC(=O)N(c3ccccc3)C2N1 (stereo not drawn) | > 4 mM (inactive) |
| CCC[C@H]1CC2=C(C[C@@H](CC)CC3=C1C(=O)OC3=O)C(=O)OC2=O | > 4 mM (inactive) |
| Cc1cc(C(=O)NCc2cccnc2)no1 | > 4 mM (inactive) |
| O=C(Nn1cnnc1)c1ccccc1Cl | > 4 mM (inactive) |
| CC(=O)c1cc(C)ccc1OC(=O)c1cccnc1 | > 4 mM (inactive) |
| Nc1cccc(OC(F)(F)F)c1 | > 4 mM (inactive) |
| c1cncc(C2CCCCN2)c1 (stereo not drawn) | > 4 mM (inactive) |
| CC(C)CCCC(C)C1CCC2C3=CC[C@H]4C[C@@H](O)CC[C@]4(C)C3CC[C@@]21C (stereo partly drawn) | > 4 mM (inactive) |
| OCc1ccc(-c2cccs2)s1 | > 4 mM (inactive) |
| COC(=O)c1noc(-c2ccc(OC)cc2)n1 | > 4 mM (inactive) |
| Cc1cc(=O)cc(C)n1-c1ccccc1N | > 4 mM (inactive) |
| CCNC(=O)CC[C@H](N)C(=O)O | > 4 mM (inactive) |
| COc1nc(C#N)c(N2CCOCC2)o1 | > 4 mM (inactive) |
| O=C1CSC2(CN3CCC2CC3)N1 (stereo not drawn) | > 4 mM (inactive) |
| O=C1C(=O)N(CN2CCN(CCO)CC2)c2ccccc21 | > 4 mM (inactive) |
| Cc1nc(NC2=NCCC(=O)N2)nc2ccccc12 | > 4 mM (inactive) |
| NC1=NC(=O)/C(=C/c2ccc(O)c(Cl)c2)S1 | > 4 mM (inactive) |
| COC(=O)c1cccc(N)c1 | > 4 mM (inactive) |
| O=C1NC(=O)C(C(=S)Nc2ccccc2)C(=O)N1 | > 4 mM (inactive) |

| SMILES | Kd |
| --- | --- |
| CCc1ccc2oc(-c3cc(N)cc(C)c3O)nc2c1 | > 4 mM (inactive) |
| C[n+]1ccc(C(=O)[O-])cc1 | > 4 mM (inactive) |
| S=c1nc[nH]c2c1cnn2-c1ccccc1 | > 4 mM (inactive) |
| CC[C@@]1(O)C[C@H](O[C@H]2C[C@H](N(C)C)[C@H](O)[C@H](C)O2)c2c(cc3c(c2O)C(=O)c2c(O)cccc2C3=O)[C@H]1C(=O)OC | > 4 mM (inactive) |
| C[C@]12CCC3C(CC[C@H]4C[C@@H](O)CC[C@]34C)C1CCC2=O (stereo partly drawn) | > 4 mM (inactive) |
| NC(=O)c1ccsc1NC(=O)c1ccco1 | > 4 mM (inactive) |
| OCc1ccc(N2CCOCC2)cc1 | > 4 mM (inactive) |
| CC1=C(C(N)=O)C(c2ccco2)C(C(N)=O)=C(C)N1 | > 4 mM (inactive) |
| COc1ccc2ccc(=O)oc2c1CC=C(C)C | > 4 mM (inactive) |
| OCc1ccccc1CN1CCOCC1 | > 4 mM (inactive) |
| O=C1CSC(c2ccc3c(c2)OCO3)N1 (stereo not drawn) | > 4 mM (inactive) |
| Nc1nc(-c2ccccc2)ns1 | > 4 mM (inactive) |
| COc1cc2c(cc1OC)C1Cc3ccc(OC)c(OC)c3CN1CC2 (stereo not drawn) | > 4 mM (inactive) |
| CCOC(=O)c1csc(C)n1 | > 4 mM (inactive) |
| CS(=O)(=O)CCCCN=C=S | > 4 mM (inactive) |
| CO[C@H]1[C@@H](O)[C@@H](C)O[C@H](O[C@H]2CCC3(C)C4CCC5(C)[C@@H](C6=CC(=O)OC6)CC[C@]5(O)[C@@H]4CC[C@]3(O)C2)[C@@H]1O (stereo partly drawn) | > 4 mM (inactive) |
| O=C1CCC(C(=O)NCc2ccc(Cl)cc2)N1 (stereo not drawn) | > 4 mM (inactive) |
| O=C1CSC(=O)N1c1cccc(O)c1 | > 4 mM (inactive) |
| CCOc1nc(C)ccc1-c1noc(-c2ccco2)n1 | > 4 mM (inactive) |
| CC1=C(/C=C/C(C)=C/C=C/C(C)=C/C=C/C=C(C)/C=C/C=C(C)/C=C/C(=O)[C@]2(C)C[C@@H](O)CC2(C)C)C(C)(C)C[C@H](O)C1 | > 4 mM (inactive) |
| Cn1c(CO)nc2ccccc21 | > 4 mM (inactive) |
| O=C(O)c1cccnc1N1CCOCC1 | > 4 mM (inactive) |
| COc1ccccc1NC(=O)C1CCC(=O)N1 (stereo not drawn) | > 4 mM (inactive) |
| Cc1cc(=O)cc(C)n1NC(N)=S | > 4 mM (inactive) |

| SMILES | Kd |
| --- | --- |
| CC(C)=CC1C(CO)C1(C)C (stereo not drawn) | > 4 mM (inactive) |
| CSc1ccc(/C=c2\sc3ncnn3c2=O)cc1 | > 4 mM (inactive) |
| COc1cc(OC)c2c(=O)c(-c3ccccc3)coc2c1 | > 4 mM (inactive) |
| O=C1CCC([N+](=O)[O-])C(c2ccccc2F)N1 (stereo not drawn) | > 4 mM (inactive) |
| CC(=O)Nc1cc(O)cc(O)c1 | > 4 mM (inactive) |
| CN(C)S(=O)(=O)N1CCc2ccccc21 | > 4 mM (inactive) |
| Cc1noc(C)c1C(=O)Nc1ccccn1 | > 4 mM (inactive) |
| COc1cc(C)c(Cl)cc1S(=O)(=O)N(C)C | > 4 mM (inactive) |
| CCn1nnnc1Oc1ccc(Cl)cc1 | > 4 mM (inactive) |
| CC(=O)Nc1c(Cl)cnn(-c2ccccc2)c1=O | > 4 mM (inactive) |
| Cc1occc1C(=O)Nc1ccc2c(c1)CCC2 | > 4 mM (inactive) |
| Cc1ccccc1-n1c(-c2ccncc2)n[nH]c1=S | > 4 mM (inactive) |
| COc1ccc2c(c1)OC/C(=C/c1ccc(OC)c(OC)c1)C2=O | > 4 mM (inactive) |
| NC(=O)Cc1nc(-c2ccc(F)cc2)cs1 | > 4 mM (inactive) |
| CCOC(=O)c1ccc(Oc2ccc(C)nn2)cc1 | > 4 mM (inactive) |
| CC12OC(=O)CC3C(C)(C)[C@H](O)C=C[C@]3(C)C1CC[C@]1(C)C2=CC(=O)O[C@H]1c1ccoc1 (stereo partly drawn) | > 4 mM (inactive) |
| Cn1[nH]c2nc3[nH]n(C)c(=O)c3c(-c3ccccc3)c2c1=O | > 4 mM (inactive) |
| Nc1ccc(N2CCOCC2)cc1 | > 4 mM (inactive) |
| CC1=C/C(=C\c2c(O)[nH]c(=O)[nH]c2=O)C(C)=N1 | > 4 mM (inactive) |
| COc1ccc2ccc(=O)oc2c1 | > 4 mM (inactive) |
| C(=Nn1cnnc1)c1ccccc1 | > 4 mM (inactive) |
| COc1c(OC)c2occc2c2oc(=O)ccc12 | > 4 mM (inactive) |
| COc1ccc(C(C)=O)c(OC)c1 | > 4 mM (inactive) |
| CCOC(=O)c1c(C)nc2ccccn12 | > 4 mM (inactive) |

| SMILES | Kd |
| --- | --- |
| CN1CCC(N2CCOCC2)CC1 | > 4 mM (inactive) |
| O=C(O)C1CSC(c2cccnc2)N1 (stereo not drawn) | > 4 mM (inactive) |
| Oc1ccccc1N1CCOCC1 | > 4 mM (inactive) |
| Cn1c(SCC(N)=O)nc2c1c(=O)[nH]c(=O)n2C | > 4 mM (inactive) |
| COc1cc(N)ccc1NC(=O)c1cccs1 | > 4 mM (inactive) |
| COC(=O)C[C@@H]1C2(C)C(=O)[C@@H](CC3=C4C=C(OC)O[C@@H](c5ccoc5)[C@]4(C)CCC32)[C@H](O)C1(C)C (stereo partly drawn) | > 4 mM (inactive) |
| CC(=O)NC(O)C(=O)c1ccccc1 (stereo not drawn) | > 4 mM (inactive) |
| N#CCSc1nnc2ccc3ccccc3n12 | > 4 mM (inactive) |
| Cc1cc2ncc(C(=O)O)c(C)n2n1 | > 4 mM (inactive) |
| Fc1ccc(N2CCNCC2)cc1 | > 4 mM (inactive) |
| COCC(=O)Nc1cccc(Br)c1 | > 4 mM (inactive) |
| O=C1NC(=O)C(c2ccccc2)C(=O)N1 | > 4 mM (inactive) |
| NC(=O)CNC(=O)c1ccc2ccccc2n1 | > 4 mM (inactive) |
| Cc1nn(-c2ccccc2)nc1C(=O)O | > 4 mM (inactive) |
| c1ccc(Cc2nnc3sc(-c4ccccn4)nn23)cc1 | > 4 mM (inactive) |
| CC(=O)Nc1ccc(Cl)c(C(N)=O)c1 | > 4 mM (inactive) |
| O=C1c2ccccc2C(=O)c2c1ccc(O)c2O | > 4 mM (inactive) |
| CSCCNC(C)=O | > 4 mM (inactive) |
| Cc1scc(C(=O)Nn2cnnc2)c1-c1ccccc1 | > 4 mM (inactive) |
| C[C@@H]1O[C@@H](O[C@H]2C[C@@H](O)[C@]3(CO)C4C(CC[C@]3(O)C2)[C@@]2(O)CC[C@H](C3=CC(=O)OC3)[C@@]2(C)C[C@H]4O)[C@H](O)[C@H](O)[C@H]1O (stereo partly drawn) | > 4 mM (inactive) |
| CN1CCCn2c1nc1c2c(=O)[nH]c(=O)n1C | > 4 mM (inactive) |
| CC(C)(CO)NC(=O)c1ccccc1F | > 4 mM (inactive) |
